Assays:
bedstraw = experiment: Test B pre/postemergence bedstraw; format: in vivo, Galium aparine
Summary of the method: (§1)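 Test chemicals in a non-phytotoxic solvent mixture with surfactant were sprayed preemergence onto planted seeds and postemergence onto plants 2 to 18 cm tall (1- to 4-leaf stage). After twelve to sixteen days in a greenhouse, injury was visually rated against untreated controls from 0 (no effect) to 10 (complete control).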

blackgrass = experiment: Test B pre/postemergence blackgrass; format: in vivo, Alopecurus myosuroides
Summary of the method: as §1

surinam grass = experiment: Test B pre/postemergence surinam grass; format: in vivo, Brachiaria decumbens
Summary of the method: as §1

cocklebur = experiment: Test B pre/postemergence cocklebur; format: in vivo, Xanthium strumarium
Summary of the method: as §1

crabgrass = experiment: Test B pre/postemergence crabgrass; format: in vivo, Digitaria sanguinalis
Summary of the method: as §1

giant foxtail = experiment: Test B pre/postemergence giant foxtail; format: in vivo, Setaria faberii
Summary of the method: as §1

morningglory = experiment: Test B pre/postemergence morningglory; format: in vivo, Ipomoea hederacea
Summary of the method: as §1

pigweed = experiment: Test B pre/postemergence pigweed; format: in vivo, Amaranthus retroflexus
Summary of the method: as §1

sugar beet = experiment: Test B pre/postemergence sugar beet; format: in vivo, Beta vulgaris
Summary of the method: as §1

velvetleaf = experiment: Test B pre/postemergence velvetleaf; format: in vivo, Abutilon theophrasti
Summary of the method: as §1

wheat = experiment: Test B pre/postemergence wheat; format: in vivo, Triticum aestivum
Summary of the method: as §1

wild oat = experiment: Test B pre/postemergence wild oat; format: in vivo, Avena fatua
Summary of the method: as §1

purple nutsedge = experiment: Test B pre/postemergence purple nutsedge; format: in vivo, Cyperus rotundus
Summary of the method: as §1

rice = experiment: Test B flood test rice; format: in vivo, Oryza sativa
Summary of the method: (§2)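 Flood test on plants grown to the 2-leaf stage; treated plants kept in greenhouse twelve to sixteen days, then visually rated against controls on a 0 (no effect) to 10 (complete control) scale.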

duck salad = experiment: Test B flood test duck salad; format: in vivo, Heteranthera limosa
Summary of the method: as §2

bamyardgrass = experiment: Test B flood test barnyardgrass; format: in vivo, Echinochloa crus-galli
Summary of the method: as §2

[1] = Preemergence, Rate 62 g/ha, scale of 0 to 10 where 0 is no effect and 10 is complete control
[2] = Preemergence, Rate 250 g/ha, scale of 0 to 10 where 0 is no effect and 10 is complete control
[3] = Preemergence, Rate 500 g/ha, scale of 0 to 10 where 0 is no effect and 10 is complete control
[4] = Rate 62 g/ha, Postemergence, scale 0 to 10 (0 no effect, 10 complete control)
[5] = Rate 125 g/ha, Postemergence, scale of 0 to 10 where 0 is no effect and 10 is complete control
[6] = Rate 250 g/ha, Postemergence, scale of 0 to 10 where 0 is no effect and 10 is complete control
[7] = Rate 500 g/ha, Postemergence, scale 0 to 10, 0 no effect, 10 complete control
[8] = Rate 62 g/ha, headed Pre-emergence (flood test species), scale 0 to 10 (0 no effect, 10 complete control)
[9] = Rate 125 g/ha, Pre-emergence, flood test species, scale 0 to 10 where 0 is no effect and 10 is complete control
[10] = Rate 250 g/ha, Pre-emergence, flood-test species, scale 0 to 10, 0 is no effect, 10 is complete control
[11] = Rate 500 g/ha, Pre-emergence, flood test species, scale 0 to 10 (0 no effect, 10 complete control)

## CC(C)N(C(=O)n1oc(=O)n(Cc2ccccc2-c2ccccc2)c1=O)c1ccc(F)cc1 [Compound 313]
bedstraw; [1]
  Bedstraw plant response rating: 0
bedstraw; [2]
  Bedstraw plant response rating: 0
bedstraw; [3]
  Bedstraw plant response rating: 0
bedstraw; [4]
  Bedstraw plant response rating: 5
bedstraw; [5]
  Bedstraw plant response rating: 7
bedstraw; [6]
  Plant response rating, Bedstraw: 7
blackgrass; [1]
  Blackgrass plant response rating: 0
blackgrass; Preemergence, Rate 125 g/ha
  Blackgrass plant response rating (0 to 10 scale): 0
blackgrass; [2]
  Blackgrass plant response rating: 0
blackgrass; [3]
  Blackgrass plant response rating: 0
blackgrass; [4]
  Blackgrass plant response rating: 0
blackgrass; [5]
  Blackgrass plant response rating: 0
blackgrass; [6]
  Plant response rating, Blackgrass: 0
blackgrass; [7]
  Blackgrass plant response rating: 0
Surinam grass; [1]
  B. signalgrass plant response rating: 0
Surinam grass; Preemergence, Rate 125 g/ha
  B. signalgrass plant response rating (0 to 10 scale, 0 is no effect, 10 is complete control): 0
Surinam grass; [2]
  B. signalgrass plant response rating: 0
Surinam grass; [3]
  B. signalgrass plant response rating: 0
Surinam grass; [4]
  B. signalgrass plant response rating: 0
Surinam grass; [5]
  B. signalgrass plant response rating: 0
Surinam grass; [6]
  Plant response rating, B. signalgrass: 0
Surinam grass; [7]
  B. signalgrass plant response rating: 0
cocklebur; [1]
  Cocklebur plant response rating: 0
cocklebur; Preemergence, Rate 125 g/ha
  Cocklebur plant response rating (0 to 10 scale): 0
cocklebur; [2]
  Cocklebur plant response rating: 0
cocklebur; [3]
  Cocklebur plant response rating: 0
cocklebur; [4]
  Cocklebur plant response rating: 0
cocklebur; [5]
  Cocklebur plant response rating: 0
cocklebur; [6]
  Plant response rating, Cocklebur: 0
cocklebur; [7]
  Cocklebur plant response rating: 0
crabgrass; [1]
  Crabgrass plant response rating: 0
crabgrass; Preemergence, Rate 125 g/ha
  Crabgrass plant response rating (0 to 10 scale): 0
crabgrass; [2]
  Crabgrass plant response rating: 0
crabgrass; [3]
  Crabgrass plant response rating: 0
crabgrass; [4]
  Crabgrass plant response rating: 0
crabgrass; [5]
  Crabgrass plant response rating: 0
crabgrass; [6]
  Plant response rating, Crabgrass: 0
Giant foxtail; [1]
  Giant foxtail plant response rating: 0
Giant foxtail; Preemergence, Rate 125 g/ha
  Giant foxtail plant response rating (0 to 10 scale): 0
Giant foxtail; [2]
  Giant foxtail plant response rating: 0
Giant foxtail; [3]
  Giant foxtail plant response rating: 0
Giant foxtail; [4]
  Giant foxtail plant response rating: 0
Giant foxtail; [5]
  Giant foxtail plant response rating: 0
Giant foxtail; [6]
  Plant response rating, Giant foxtail: 0
morningglory; [1]
  Morningglory plant response rating: 0
morningglory; Preemergence, Rate 125 g/ha
  Morningglory plant response rating (0 to 10 scale): 0
morningglory; [2]
  Morningglory plant response rating: 0
morningglory; [3]
  Morningglory plant response rating: 0
morningglory; [4]
  Morningglory plant response rating: 2
morningglory; [5]
  Morningglory plant response rating: 3
morningglory; [6]
  Plant response rating, Morningglory: 3
pigweed; [1]
  Redroot pigweed plant response rating: 0
pigweed; Preemergence, Rate 125 g/ha
  Redroot pigweed plant response rating (0 to 10 scale): 0
pigweed; [2]
  Redroot pigweed plant response rating: 0
pigweed; [3]
  Redroot pigweed plant response rating: 0
pigweed; [4]
  Redroot pigweed plant response rating: 0
pigweed; [5]
  Redroot pigweed plant response rating: 0
pigweed; [6]
  Plant response rating, Redroot pigweed: 2
Sugar beet; [1]
  Sugarbeets plant response rating: 0
Sugar beet; Preemergence, Rate 125 g/ha
  Sugarbeets plant response rating (0 to 10 scale): 0
Sugar beet; [2]
  Sugarbeets plant response rating: 0
Sugar beet; [3]
  Sugarbeets plant response rating: 0
Sugar beet; [4]
  Sugarbeets plant response rating: 0
Sugar beet; [5]
  Sugarbeets plant response rating: 0
Sugar beet; [6]
  Plant response rating, Sugarbeets: 0
velvetleaf; [1]
  Velvetleaf plant response rating: 0
velvetleaf; Preemergence, Rate 125 g/ha
  Velvetleaf plant response rating (0 to 10 scale): 0
velvetleaf; [2]
  Velvetleaf plant response rating: 0
velvetleaf; [3]
  Velvetleaf plant response rating: 0
velvetleaf; [4]
  Velvetleaf plant response rating: 0
velvetleaf; [5]
  Velvetleaf plant response rating: 0
velvetleaf; [6]
  Plant response rating, Velvetleaf: 0
wheat; [1]
  Wheat plant response rating: 0
wheat; Preemergence, Rate 125 g/ha
  Wheat plant response rating (0 to 10 scale): 0
wheat; [2]
  Wheat plant response rating: 0
wheat; [3]
  Wheat plant response rating: 0
wheat; [4]
  Wheat plant response rating: 0
wheat; [5]
  Wheat plant response rating: 0
wheat; [6]
  Plant response rating, Wheat: 0
Wild oat; [1]
  Wild oats plant response rating: 0
Wild oat; Preemergence, Rate 125 g/ha
  Wild oats plant response rating (0 to 10 scale): 0
Wild oat; [2]
  Wild oats plant response rating: 0
Wild oat; [3]
  Wild oats plant response rating: 0
Wild oat; [4]
  Wild oats plant response rating: 0
Wild oat; [5]
  Wild oats plant response rating: 0
Wild oat; [6]
  Plant response rating, Wild oats: 0
Purple nutsedge; [1]
  Nutsedge plant response rating: 0
Purple nutsedge; Preemergence, Rate 125 g/ha
  Nutsedge plant response rating (0 to 10 scale): 0
Purple nutsedge; [2]
  Nutsedge plant response rating: 0
Purple nutsedge; [3]
  Nutsedge plant response rating: 0
Purple nutsedge; [4]
  Nutsedge plant response rating: 0
Purple nutsedge; [5]
  Nutsedge plant response rating: 0
Purple nutsedge; [6]
  Plant response rating, Nutsedge: 0
rice; [8]
  Rice plant response rating: 0
rice; [9]
  Rice plant response rating: 0
rice; [10]
  Rice plant response rating: 0
rice; [11]
  Rice plant response rating: 0
Duck salad; [8]
  Ducksalad plant response rating: 0
Duck salad; [9]
  Ducksalad plant response rating: 0
Duck salad; [10]
  Ducksalad plant response rating: 0
Duck salad; [11]
  Ducksalad plant response rating: 0
bamyardgrass; [8]
  Barnyardgrass plant response rating: 0
bamyardgrass; [9]
  Barnyardgrass plant response rating: 0
bamyardgrass; [10]
  Barnyardgrass plant response rating: 0
bamyardgrass; [11]
  Barnyardgrass plant response rating: 0
